The data set concerns Human giant cell lung carcinoma cells Lu65. Briefly: Biological distribution of biotinated αSQAP in tumor of tumor-bearing nude mice (Alexa 488 avidin staining of tumor slices). The data set is classed as in vivo, KSN nude mice. To be noted: tail vein, one hour after administration, FIG. 2. As for the experimental part:
Human giant cell lung carcinoma cells Lu65 were transplanted into six-week-old male KSN nude mice in a number of 1×10^6 for each of the mice, and the mice were bred for 14 days to form a tumor mass of about 100-200 mm^3 volume in each of the mice.
Thereafter, three mice were assigned to each of the following four groups (1) to (4):
(1) a control group wherein physiological saline was administered,
(2) a high dose group wherein biotinated αSQAP was administered in a dose of 50 mg/kg,
(3) a middle dose group wherein biotinated αSQAP was administered in a dose of 5 mg/kg, and […]
The slice was observed by a fluorescence microscope, and the slice was made into an image. Data on the image were input to a computer, and then positive signals of the image were quantified according to image analysis software.
Specifically, binary image processing based on Photoshop was performed to estimate a tumor region emitting fluorescence through the labeling material Alexa 488 in the slice. Thereafter, a portion (fraction) containing tumor tissues was selected from the visual field, and the number of pixels of the Alexa 488 positive region (black region) and the entire region were counted and the ratio of the positive region was calculated according to the formula: […]

Each structure is given as a SMILES string.

Consider `O=C(CCCC[C@@H]1SC[C@@H]2NC(=O)N[C@@H]21)NCCC(=O)OCCCO[C@H]1O[C@H](CS(=O)(=O)[O-])[C@@H](O)[C@H](O)[C@H]1O.O=C(CCCC[C@@H]1SC[C@@H]2NC(=O)N[C@@H]21)NCCC(=O)OCCCO[C@H]1O[C@H](CS(=O)(=O)[O-])[C@@H](O)[C@H](O)[C@H]1O.[Ca+2]` [biotinated αSQAP, 3-O-(6-sulfo-α-D-quinovopyranosyl)-1-O-(biotinyl-β-alanyl)-propane-1,3-diol calcium salt], for which, under “50 mg/kg”, the amount in tumor result is reported as “large”. In addition, the “staining of tumor tissues (Alexa 488 positive region)” value (high dose group 50 mg/kg) is listed as “intensely dyed”.

The values are drawn from patent publication US20100202971A1, “COMPOUND HAVING TUMOR-RESIDENT PROPERTY” (priority 2009, published 2010).
